Laboratory results published in patent publication US8759295B2, “Peptide-peptidase inhibitor conjugates and methods of using same” (Amylin Pharmaceuticals, LLC, priority 2006, dated 2014).
Starred links: 1 amine or outer side, 2 acyl side, 3 side chain; linkers in the order of their positions; H or OH if unused. Non-standard residues stand in square brackets, D forms with d. No end group written: not given here. *: point of attachment. Pyrrolidine(2S-CN) = N#C[C@@H]1CCCN1*; εLys = N[C@@H](CCCCN[*:1])C(=O)[*:2]; pGlu = O=C1CC[C@@H](C(=O)O)N1; AEEA = NCCOCCOCC(=O)O; βAla = NCCC(=O)O

Assays:
[1] = target: T1, human GIP receptor (HEK-GIPR membranes) (Homo sapiens, UniProt P48546); assay: GIP receptor binding displacement assay (RBA); settings: 10 nM conjugate, 30 pM 125I-GIP; for inhibition at 0.01 µM: read-out: GIP RBA % inhibition at 10 nM
T1 construct: expressed in transfected cells
T1 sequence (P48546 22-466): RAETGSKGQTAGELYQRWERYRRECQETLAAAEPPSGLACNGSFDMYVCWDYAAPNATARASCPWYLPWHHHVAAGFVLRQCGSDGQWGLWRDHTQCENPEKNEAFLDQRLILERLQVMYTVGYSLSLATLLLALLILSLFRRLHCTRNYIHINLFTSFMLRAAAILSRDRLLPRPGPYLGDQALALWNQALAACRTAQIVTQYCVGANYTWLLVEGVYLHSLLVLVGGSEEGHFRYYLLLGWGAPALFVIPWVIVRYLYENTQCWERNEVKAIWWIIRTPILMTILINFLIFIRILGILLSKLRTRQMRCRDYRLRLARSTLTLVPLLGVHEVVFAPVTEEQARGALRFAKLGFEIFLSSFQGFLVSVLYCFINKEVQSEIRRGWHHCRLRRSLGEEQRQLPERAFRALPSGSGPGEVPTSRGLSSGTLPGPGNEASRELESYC
Method: Membrane fractions were prepared from confluent cell cultures of HEK-GIPR, snap frozen, and stored at −80° C. until use. […] Reactions were allowed to proceed to equilibrium for 90 minutes at room temperature with constant shaking. The reaction mixtures were then filtered through 96-well glass fiber filter plates separating bound and unbound fractions of radioligand.

NIH/Swiss mice = assay: Oral glucose tolerance test (OGTT), glucose lowering; settings: 30 nM/kg
Recombinant DPP-IV = Recombinant DPP-IV (Homo sapiens, UniProt P27487); assay: DPP-IV inhibition assay with chromogenic substrate; type: biochemical; parameters: purchased Chemicon International, Inc., Temecula, Calif; settings: mean SEM of at least three determinations
Chain of Recombinant DPP-IV (P27487 whole entry, species assumed): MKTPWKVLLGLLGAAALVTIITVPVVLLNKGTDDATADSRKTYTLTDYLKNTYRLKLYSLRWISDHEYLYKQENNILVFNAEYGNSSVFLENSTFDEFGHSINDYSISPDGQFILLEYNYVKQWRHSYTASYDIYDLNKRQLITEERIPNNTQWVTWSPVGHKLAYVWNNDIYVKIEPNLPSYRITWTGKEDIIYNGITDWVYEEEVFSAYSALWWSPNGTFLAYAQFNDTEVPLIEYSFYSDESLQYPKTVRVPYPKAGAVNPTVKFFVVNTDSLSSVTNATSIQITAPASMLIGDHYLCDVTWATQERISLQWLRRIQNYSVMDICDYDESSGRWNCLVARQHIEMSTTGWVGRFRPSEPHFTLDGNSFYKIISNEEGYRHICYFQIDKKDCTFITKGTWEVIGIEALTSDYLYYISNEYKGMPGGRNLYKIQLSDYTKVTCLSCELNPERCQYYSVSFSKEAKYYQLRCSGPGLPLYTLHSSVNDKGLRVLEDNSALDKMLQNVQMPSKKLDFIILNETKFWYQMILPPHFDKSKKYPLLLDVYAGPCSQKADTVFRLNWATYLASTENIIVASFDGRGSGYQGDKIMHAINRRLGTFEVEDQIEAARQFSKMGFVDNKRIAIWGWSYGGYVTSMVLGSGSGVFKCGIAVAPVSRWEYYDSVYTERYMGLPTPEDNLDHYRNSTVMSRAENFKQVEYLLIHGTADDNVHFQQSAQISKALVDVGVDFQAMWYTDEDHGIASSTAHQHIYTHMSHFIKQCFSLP
Method: The reactions were initiated by adding 1 μl DPP-IV enzyme (0.05 mU) into each well and the absorbance at 410 nm was measured with 20-sec intervals over a 30-min period using a SpectraMax plate reader (Molecular Devices, Corp., Sunnyvale, Calif.). The velocities of each reaction at different inhibitor concentrations were calculated and the reciprocal velocities were plotted against inhibitor concentrations in Dixon graphs. The IC50 values of reaction velocities were calculated through fitting the plots with linear equation.
The IC50 (nM) values in Table 5 are expressed as the mean SEM of at least three independent determinations.

Compound: CC[C@H](C)[C@H](NC(=O)[C@H](CO)NC(=O)[C@H](Cc1ccc(O)cc1)NC(=O)[C@H](CC(=O)O)NC(=O)[C@H](CO)NC(=O)[C@@H](NC(=O)[C@H](Cc1ccccc1)NC(=O)[C@@H](NC(=O)CNC(=O)[C@H](CCC(=O)O)NC(=O)[C@H](C)NC(=O)[C@@H](N)Cc1ccc(O)cc1)[C@@H](C)O)[C@@H](C)CC)C(=O)N[C@@H](C)C(=O)N[C@@H](CCSC)C(=O)N[C@@H](CC(=O)O)C(=O)N[C@@H](CCCCN)C(=O)N[C@H](C(=O)N[C@@H](Cc1c[nH]cn1)C(=O)N[C@@H](CCC(N)=O)C(=O)N[C@@H](CCC(N)=O)C(=O)N[C@@H](CC(=O)O)C(=O)N[C@@H](Cc1ccccc1)C(=O)N[C@H](C(=O)N[C@@H](CC(N)=O)C(=O)N[C@@H](Cc1c[nH]c2ccccc12)C(=O)N[C@@H](CC(C)C)C(=O)N[C@@H](CC(C)C)C(=O)N[C@@H](C)C(=O)N[C@@H](CCC(N)=O)C(=O)N[C@@H](CCCCN)C(=O)NCCOCCOCC(=O)NCCOCCOCC(=O)NCCCC[C@H](N)C(=O)N1CCC[C@H]1C#N)C(C)C)[C@@H](C)CC [GIP(1-30)-Ado-Ado-Lys-N-ε-(2-(S)-cyano pyrrolidyl)]
- inhibition at 0.01 µM [1]: 97%
- OGTT % maximal decrease (NIH/Swiss mice): −17%

Compound: CC[C@H](C)[C@H](NC(=O)[C@H](CO)NC(=O)[C@H](Cc1ccc(O)cc1)NC(=O)[C@H](CC(=O)O)NC(=O)[C@H](CO)NC(=O)[C@@H](NC(=O)[C@H](Cc1ccccc1)NC(=O)[C@@H](NC(=O)CNC(=O)[C@H](CCC(=O)O)NC(=O)[C@H](C)NC(=O)[C@@H](N)Cc1ccc(O)cc1)[C@@H](C)O)[C@@H](C)CC)C(=O)N[C@@H](C)C(=O)N[C@@H](CCSC)C(=O)N[C@@H](CC(=O)O)C(=O)N[C@@H](CCCCN)C(=O)N[C@H](C(=O)N[C@@H](Cc1c[nH]cn1)C(=O)N[C@@H](CCC(N)=O)C(=O)N[C@@H](CCC(N)=O)C(=O)N[C@@H](CC(=O)O)C(=O)N[C@@H](Cc1ccccc1)C(=O)N[C@H](C(=O)N[C@@H](CC(N)=O)C(=O)N[C@@H](Cc1c[nH]c2ccccc12)C(=O)N[C@@H](CC(C)C)C(=O)N[C@@H](CC(C)C)C(=O)N[C@@H](C)C(=O)N[C@@H](CCC(N)=O)C(=O)N[C@@H](CCCCN)C(=O)NCCOCCOCC(=O)NCCCC[C@H](N)C(=O)N1CCC[C@H]1C#N)C(C)C)[C@@H](C)CC [GIP(1-30)-Ado-Lys-N-ε-(2-(S)-cyano pyrrolidyl)]
- inhibition at 0.01 µM [1]: 99%
- IC50 (Recombinant DPP-IV): 98 ± 5 nM

Compound: CC[C@H](C)[C@H](NC(=O)[C@H](CO)NC(=O)[C@H](Cc1ccc(O)cc1)NC(=O)[C@H](CC(=O)O)NC(=O)[C@H](CO)NC(=O)[C@@H](NC(=O)[C@H](Cc1ccccc1)NC(=O)[C@@H](NC(=O)CNC(=O)[C@H](CCC(=O)O)NC(=O)[C@H](C)NC(=O)[C@@H](N)Cc1ccc(O)cc1)[C@@H](C)O)[C@@H](C)CC)C(=O)N[C@@H](C)C(=O)N[C@@H](CCSC)C(=O)N[C@@H](CC(=O)O)C(=O)N[C@@H](CCCCN)C(=O)N[C@H](C(=O)N[C@@H](Cc1c[nH]cn1)C(=O)N[C@@H](CCC(N)=O)C(=O)N[C@@H](CCC(N)=O)C(=O)N[C@@H](CC(=O)O)C(=O)N[C@@H](Cc1ccccc1)C(=O)N[C@H](C(=O)N[C@@H](CC(N)=O)C(=O)N[C@@H](Cc1c[nH]c2ccccc12)C(=O)N[C@@H](CC(C)C)C(=O)N[C@@H](CC(C)C)C(=O)N[C@@H](C)C(=O)N[C@@H](CCC(N)=O)C(=O)N[C@@H](CCCCN)C(=O)N1CCC[C@H]1C(=O)N[C@@H](CO)C(=O)N[C@@H](CO)C(=O)NCC(=O)N[C@@H](C)C(=O)N1CCC[C@H]1C(=O)N1CCC[C@H]1C(=O)N1CCC[C@H]1C(=O)N[C@@H](CO)C(=O)NCCOCCOCC(=O)NCCOCCOCC(=O)NCCCC[C@H](N)C(=O)N1CCC[C@H]1C#N)C(C)C)[C@@H](C)CC [GIP(1-30)-exendin-4(31-39)-Ado-Ado-Lys-N-ε-(2-(S)-cyano pyrrolidyl)]
- OGTT % maximal decrease (NIH/Swiss mice): −22%

Compound: CC[C@H](C)[C@H](NC(=O)[C@H](CO)NC(=O)[C@H](Cc1ccc(O)cc1)NC(=O)[C@H](CC(=O)O)NC(=O)[C@H](CO)NC(=O)[C@@H](NC(=O)[C@H](Cc1ccccc1)NC(=O)[C@@H](NC(=O)CNC(=O)[C@H](CCC(=O)O)NC(=O)[C@H](C)NC(=O)[C@H](Cc1ccc(O)cc1)NC(=O)COCCOCCNC(=O)COCCOCCNC(=O)CC[C@H](N)C(=O)N1CCC[C@H]1C#N)[C@@H](C)O)[C@@H](C)CC)C(=O)N[C@@H](C)C(=O)N[C@@H](CCSC)C(=O)N[C@@H](CC(=O)O)C(=O)N[C@@H](CCCCN)C(=O)N[C@H](C(=O)N[C@@H](Cc1c[nH]cn1)C(=O)N[C@@H](CCC(N)=O)C(=O)N[C@@H](CCC(N)=O)C(=O)N[C@@H](CC(=O)O)C(=O)N[C@@H](Cc1ccccc1)C(=O)N[C@H](C(=O)N[C@@H](CC(N)=O)C(=O)N[C@@H](Cc1c[nH]c2ccccc12)C(=O)N[C@@H](CC(C)C)C(=O)N[C@@H](CC(C)C)C(=O)N[C@@H](C)C(=O)N[C@@H](CCC(N)=O)C(=O)N[C@@H](CCCCN)C(=O)N1CCC[C@H]1C(=O)N[C@@H](CO)C(=O)N[C@@H](CO)C(=O)NCC(=O)N[C@@H](C)C(=O)N1CCC[C@H]1C(=O)N1CCC[C@H]1C(=O)N1CCC[C@H]1C(=O)N[C@@H](CO)C(=O)O)C(C)C)[C@@H](C)CC [N-(γ-L-Glu-2-(S)-cyanopyrrolidyl)-Ado-Ado) GIP(1-30)-exendin-4(31-39)]
- IC50 (Recombinant DPP-IV): 110 ± 2 nM

Compound: CC[C@H](C)[C@H](NC(=O)[C@H](CO)NC(=O)[C@H](Cc1ccc(O)cc1)NC(=O)[C@H](CC(=O)O)NC(=O)[C@H](CO)NC(=O)[C@@H](NC(=O)[C@H](Cc1ccccc1)NC(=O)[C@@H](NC(=O)CNC(=O)[C@H](CCC(=O)O)NC(=O)[C@@H](C)NC(=O)[C@@H](N)Cc1ccc(O)cc1)[C@@H](C)O)[C@@H](C)CC)C(=O)N[C@@H](C)C(=O)N[C@@H](CCSC)C(=O)N[C@@H](CC(=O)O)C(=O)N[C@@H](CCCCN)C(=O)N[C@H](C(=O)N[C@@H](Cc1c[nH]cn1)C(=O)N[C@@H](CCC(N)=O)C(=O)N[C@@H](CCC(N)=O)C(=O)N[C@@H](CC(=O)O)C(=O)N[C@@H](Cc1ccccc1)C(=O)N[C@H](C(=O)N[C@@H](CC(N)=O)C(=O)N[C@@H](Cc1c[nH]c2ccccc12)C(=O)N[C@@H](CC(C)C)C(=O)N[C@@H](CC(C)C)C(=O)N[C@@H](C)C(=O)N[C@@H](CCC(N)=O)C(=O)N[C@@H](CCCCN)C(=O)N1CCC[C@H]1C(=O)N[C@@H](CO)C(=O)N[C@@H](CO)C(=O)NCC(=O)N[C@@H](C)C(=O)N1CCC[C@H]1C(=O)N1CCC[C@H]1C(=O)N1CCC[C@H]1C(=O)N[C@@H](CO)C(=O)NCCOCCOCC(=O)NCCCC[C@H](N)C(=O)N1CCC[C@H]1C#N)C(C)C)[C@@H](C)CC [[D-Ala]GIP(1-30)-exendin-4(31-39)-Ado-Lys-N-ε-(2-(S)-cyano pyrrolidyl)]
- OGTT % maximal decrease (NIH/Swiss mice): −20%

Compound: H-YAEGTFISDYSIALDKIHQQDFVNWLLAQKPSSGAPPPS[AEEA][εLys]-{Pyrrolidine(2S-CN)} [[Leu^14]GIP(1-30)-exendin-4(31-39)-Ado-Lys-N-ε-(2-(S)-cyano pyrrolidyl)]
- IC50 (Recombinant DPP-IV): 82 ± 2 nM

Compound: Lys^16 (N-ε-(Aun-Aun-(γ-L-Glu-2-(S)-cyano pyrrolidyl))) GIP(1-30)-exendin(31-39)
- OGTT % maximal decrease (NIH/Swiss mice): −3%

Compound: [D-Ala^2, Leu^14]GIP-(1-30)-β-Ala-β-Ala-Lys(α-NH-Pyroglutamoyl)-Trp-Ala-Pro-COOH (peptide 1 Y[dA]EGTFISDYSIALDKIHQQDFVNWLLAQK[βAla][βAla]; peptide 2 [pGlu]KWAP-OH; not fully specified (some residues); printed as [D-Ala^2, Leu^14]GIP-(1-30)-β-Ala-β-Ala-Lys(α-NH-Pyroglutamoyl)-Trp-Ala-Pro-COOH; numbers in words are those of the source; also: linker at chain B 1 to a chain's C-terminus via βAla-βAla)
- GIP RBA % inhibition at 10 nM [1]: 66%
- OGTT % maximal decrease (NIH/Swiss mice): −12^ %
